From publication PMC10799085, “A miniaturized mode-of-action profiling platform enables high throughput characterization of the molecular and cellular dynamics of EZH2 inhibition” (Scientific Reports, 2024)
“And” between values parts separate entries of the source, which are not always exact repeats. Equal values may be shown once. Read-outs that look alike come from different tables or passages of the source. Values belong to the molecule of their own block, whether it stands above or below them.

What was measured:
[1] = tested on: H3K27me3 mark in MDA-MB-231 cells; experiment: High content analysis (HCA) of cellular H3K27me3 mark, washout format; format: cell-based; conditions: for AUC (a.u.): HCA H3K27 methylation washout pIC50 AUC over all incubation/washout times; for IC50: Homo sapiens
Description: In the low- and high-signal control wells, test compounds were replaced by 10 µM of EZH2 inhibitor (equal to unlabeled probe from ePCA and kPCA) or DMSO, respectively. […] After fixation, the cells were washed with PBS and incubated with 1% BSA blocking solution at RT for 1 h. Blocking solution was discarded, primary monoclonal antibody rabbit Tri-methyl-histone H3K27 (C36B11, Cell signaling) diluted 1:200 in blocking solution was added and incubated overnight at 4 °C. […] Afterwards, cells were washed three times with PBS and incubated at 4 °C until measuring. Fluorescence signals were captured by an Opera Phenix™ High Content Screening (HCA) system (Perkin Elmer) by 10× magnification. […] Microscopy images were initially visualized and preprocessed with MetaXpress High Content Image Acquisition & Analysis Software (Molecular Devices) as previously described. Raw data import, normalization, quality control and fitting curves for IC50 determination of tested compounds were done with Genedata Screener® for high-content screening. Wells with no recognizable signals were masked and the average intensity of the trimethylation signal was normalized to the DMSO control (0%).

in vitro = in vitro ADME; conditions: human, Caco-2, pH 7.2, 2 µM, 2 h, 37 °C; for Papp A→B at 2 h, 2 µM: apical to basolateral, read-out: PK Caco-2 Flux Papp A-B (mean); for Papp B→A at 2 h, 2 µM: basolateral to apical, read-out: PK Caco-2 Flux Papp B-A (mean)
Description: Cells were kept at 37 °C in a humidified 5% CO2 atmosphere. Before the permeation assay was run, the culture medium was replaced by an FCS-free HEPES carbonate transport buffer (pH 7.2). For assessment of monolayer integrity, the transepithelial electrical resistance was measured. Test compounds were pre-dissolved in DMSO and added either to the apical or basolateral compartment at a final concentration of 2 µM. Before and after 2 h incubation at 37 °C, samples were taken from both compartments. Analysis of compound content was conducted after precipitation with methanol by LC/MS/MS analysis. Reference compounds were analyzed in parallel as assay control. Permeability (Papp) was calculated in the apical to basolateral (A → B) and basolateral to apical (B → A) directions. The efflux ratio basolateral (B) to apical (A) was calculated by dividing Papp B–A by Papp A–B.

KARPAS-422 cells = experiment: Cellular proliferation assay (AlamarBlue, 144 h); format: cell-based; conditions: Homo sapiens; KARPAS-422 cells, 6-day (144 h), AlamarBlue; read-out: KARPAS (6-day) Anti-proliferation IC50
Description: Cell viability was determined by means of the AlamarBlue® reagent (Thermo Fisher Scientific) following instructions from the manufacturer. […] Anti-proliferative IC50s were calculated by fitting the normalized AlamarBlue® fluorescence values to a 4-parameter logistic equation using the Electronic Notebook (ELN) software from IDBS.

PRC2/EZH2+/+ [2] = molecular target: T1, PRC2/EZH2+/+ (Homo sapiens, UniProt Q15910); experiment: Equilibrium titration of the fluorescent probe, TR-FRET, -/+ H3K27me3 activator peptide; format: binding
T1 construct: purchased Active Motif
T1 sequence (Q15910 whole entry): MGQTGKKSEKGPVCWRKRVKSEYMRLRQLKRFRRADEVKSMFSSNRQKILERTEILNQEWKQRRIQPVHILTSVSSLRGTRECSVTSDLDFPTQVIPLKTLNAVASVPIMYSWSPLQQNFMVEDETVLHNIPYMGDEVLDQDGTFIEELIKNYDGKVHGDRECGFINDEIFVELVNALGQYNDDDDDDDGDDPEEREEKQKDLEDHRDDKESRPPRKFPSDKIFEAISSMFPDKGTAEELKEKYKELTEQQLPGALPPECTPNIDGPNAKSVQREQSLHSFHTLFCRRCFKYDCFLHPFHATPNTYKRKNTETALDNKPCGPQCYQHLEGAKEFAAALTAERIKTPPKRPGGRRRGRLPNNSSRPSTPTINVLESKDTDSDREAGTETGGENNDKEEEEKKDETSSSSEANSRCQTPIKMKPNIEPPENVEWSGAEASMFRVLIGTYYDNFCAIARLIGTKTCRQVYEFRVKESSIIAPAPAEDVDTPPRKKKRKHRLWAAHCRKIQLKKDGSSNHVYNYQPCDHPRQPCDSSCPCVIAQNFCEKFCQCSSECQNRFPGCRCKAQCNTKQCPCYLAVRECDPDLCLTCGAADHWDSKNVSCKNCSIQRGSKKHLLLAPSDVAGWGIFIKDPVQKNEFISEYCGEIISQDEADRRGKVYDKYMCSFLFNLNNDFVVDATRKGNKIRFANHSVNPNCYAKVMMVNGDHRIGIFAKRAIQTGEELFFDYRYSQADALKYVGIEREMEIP
T1 sequence (O75530 whole entry partner): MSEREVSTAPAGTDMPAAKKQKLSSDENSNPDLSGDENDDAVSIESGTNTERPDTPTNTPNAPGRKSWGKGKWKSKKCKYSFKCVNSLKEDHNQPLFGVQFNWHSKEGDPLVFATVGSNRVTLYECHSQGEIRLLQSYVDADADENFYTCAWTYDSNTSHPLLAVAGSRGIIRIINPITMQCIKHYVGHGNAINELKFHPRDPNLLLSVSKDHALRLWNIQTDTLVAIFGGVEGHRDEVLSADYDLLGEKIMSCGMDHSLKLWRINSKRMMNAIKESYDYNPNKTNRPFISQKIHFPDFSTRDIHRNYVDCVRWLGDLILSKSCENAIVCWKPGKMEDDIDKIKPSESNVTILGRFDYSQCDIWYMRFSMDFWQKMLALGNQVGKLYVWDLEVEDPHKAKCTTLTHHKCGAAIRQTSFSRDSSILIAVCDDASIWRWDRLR
T1 sequence (Q15022 whole entry partner): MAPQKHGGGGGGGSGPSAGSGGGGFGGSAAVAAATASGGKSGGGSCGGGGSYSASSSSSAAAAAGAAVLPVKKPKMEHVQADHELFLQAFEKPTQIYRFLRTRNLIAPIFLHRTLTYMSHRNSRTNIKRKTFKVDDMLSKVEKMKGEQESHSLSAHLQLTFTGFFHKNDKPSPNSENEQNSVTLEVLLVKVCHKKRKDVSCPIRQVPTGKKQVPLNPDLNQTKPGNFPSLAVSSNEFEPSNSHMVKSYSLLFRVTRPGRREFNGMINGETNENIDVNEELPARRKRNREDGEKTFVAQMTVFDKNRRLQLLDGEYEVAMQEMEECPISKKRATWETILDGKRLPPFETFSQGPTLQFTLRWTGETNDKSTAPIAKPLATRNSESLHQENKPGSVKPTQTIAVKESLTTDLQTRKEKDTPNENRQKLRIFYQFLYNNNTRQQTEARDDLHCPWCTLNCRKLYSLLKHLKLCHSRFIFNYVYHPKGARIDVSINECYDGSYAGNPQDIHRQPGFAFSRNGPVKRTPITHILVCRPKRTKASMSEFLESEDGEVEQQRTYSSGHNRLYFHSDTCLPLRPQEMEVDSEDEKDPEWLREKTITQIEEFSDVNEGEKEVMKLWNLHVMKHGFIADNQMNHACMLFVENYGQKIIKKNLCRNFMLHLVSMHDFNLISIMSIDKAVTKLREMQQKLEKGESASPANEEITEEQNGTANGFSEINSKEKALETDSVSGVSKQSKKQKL
T1 sequence (Q09028 whole entry partner): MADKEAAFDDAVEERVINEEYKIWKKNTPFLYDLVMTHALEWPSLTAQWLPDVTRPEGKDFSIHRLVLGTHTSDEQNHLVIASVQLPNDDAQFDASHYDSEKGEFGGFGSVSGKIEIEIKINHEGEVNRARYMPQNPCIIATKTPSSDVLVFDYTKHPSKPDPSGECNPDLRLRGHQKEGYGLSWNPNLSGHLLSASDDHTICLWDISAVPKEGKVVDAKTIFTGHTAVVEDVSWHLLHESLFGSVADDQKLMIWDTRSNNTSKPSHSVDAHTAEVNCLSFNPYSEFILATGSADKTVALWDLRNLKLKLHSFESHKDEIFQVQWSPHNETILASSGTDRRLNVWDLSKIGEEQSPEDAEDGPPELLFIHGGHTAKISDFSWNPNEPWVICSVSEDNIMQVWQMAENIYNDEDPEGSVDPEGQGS
T1 sequence (Q6ZN18 whole entry partner): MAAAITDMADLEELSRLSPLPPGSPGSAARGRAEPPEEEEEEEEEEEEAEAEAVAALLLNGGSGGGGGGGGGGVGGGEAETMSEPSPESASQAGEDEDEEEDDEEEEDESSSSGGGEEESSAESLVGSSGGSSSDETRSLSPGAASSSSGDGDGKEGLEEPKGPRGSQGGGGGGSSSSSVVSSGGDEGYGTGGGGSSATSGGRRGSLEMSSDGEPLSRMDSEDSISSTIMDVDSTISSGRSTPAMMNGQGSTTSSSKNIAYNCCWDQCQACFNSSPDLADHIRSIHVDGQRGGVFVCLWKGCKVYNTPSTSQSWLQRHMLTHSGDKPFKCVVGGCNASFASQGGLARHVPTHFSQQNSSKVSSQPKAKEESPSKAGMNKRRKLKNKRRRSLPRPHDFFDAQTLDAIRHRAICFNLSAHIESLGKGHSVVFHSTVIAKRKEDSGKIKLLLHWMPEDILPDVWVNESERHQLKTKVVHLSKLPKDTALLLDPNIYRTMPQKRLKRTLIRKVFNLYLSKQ

PRC2/EZH2Y641N [3] = molecular target: T2, PRC2/EZH2Y641N (Homo sapiens, UniProt Q15910, Y641N); experiment: as above; format: binding; conditions: EZH2 Y641N, 25 °C
T2 construct: Synthetic cDNA encoding N-terminal 6His-tagged full length EZH2^Y641N; 6His (N); made in house; host or cells: Sf9 insect cells (baculovirus co-infection)
T2 sequence (Q15910 whole entry Y641N): as the sequence (Q15910 whole entry) above, with Y641N counted along it
T2 sequence (O75530 whole entry partner): as the sequence (O75530 whole entry partner) above
T2 sequence (Q15022 whole entry partner): as the sequence (Q15022 whole entry partner) above
T2 sequence (Q09028 whole entry partner): as the sequence (Q09028 whole entry partner) above
T2 sequence (Q6ZN18 whole entry partner): as the sequence (Q6ZN18 whole entry partner) above

PRC2/EZH2+/+ [4] = molecular target: T1, PRC2/EZH2+/+; experiment: Kinetic titration (association then dissociation) of the fluorescent probe, TR-FRET; format: binding; conditions: for Kinetic koff / Kinetic kon: listed as fluorescent EZH2 probe
PRC2/EZH2Y641N [5] = molecular target: T2, PRC2/EZH2Y641N; experiment: as above; format: binding; conditions: EZH2 Y641N, 25 °C; for Kinetic koff / Kinetic kon: listed as fluorescent EZH2 probe
EZH2 = tested on: EZH2; set-up: method as in Konze et al. [41]; conditions: 40-fold higher enzyme concentration; ref Konze et al. [41]; cited from earlier work

Papp A→B at 2 h, 2 µM (in vitro): 1.18 ×10⁻⁶ cm/s
Papp B→A at 2 h, 2 µM (in vitro): 28.1 ×10⁻⁶ cm/s
Molecule: CCN(c1cc(-c2ccc(CN3CCOCC3)cc2)cc(C(=O)NCc2c(C)cc(C)[nH]c2=O)c1C)C1CCOCC1 [Compound 2, Tazemetostat]
AUC (a.u.) [1]: 79.9 a.u.

Molecule: CCN(c1cc(-c2ccc(CN3CCOCC3)cc2)cc(C(=O)NCc2c(C)cc(C)[nH]c2=O)c1C)C1CCOCC1 [Compound 3, Tazemetostat]
AUC (a.u.) [1]: 93.5 a.u.

Molecule: CCS(=O)(=O)N1CCC([C@@H](C)n2c(C)c(C(=O)NCc3c(OC)cc(C)[nH]c3=O)c3ccccc32)CC1 [Compound 10, CPI-169]
AUC (a.u.) [1]: 39.5 a.u.
IC50 ([1]; MDA-MB-231, H3K27 methylation HCA, incubation time 0.5 h, washout time 71.5 h, read-out: Mean IC50): > 1.2e-05 M
IC50 ([1]; MDA-MB-231, H3K27 methylation HCA, incubation time 2 h, washout time 70 h, read-out: Mean IC50): > 1.2e-05 M
IC50 ([1]; MDA-MB-231, H3K27 methylation HCA, incubation time 4 h, washout time 68 h, read-out: Mean IC50): > 1.2e-05 M
IC50 ([1]; MDA-MB-231, H3K27 methylation HCA, incubation time 24 h, washout time 48 h, read-out: Mean IC50): > 1.2e-05 M
IC50 ([1]; MDA-MB-231, H3K27 methylation HCA, incubation time 48 h, washout time 24 h, read-out: Mean IC50): 3.1e-06 M
IC50 (KARPAS-422 cells): 860 nM
Papp A→B at 2 h, 2 µM (in vitro): 0.041 ×10⁻⁶ cm/s
Papp B→A at 2 h, 2 µM (in vitro): 14.7 ×10⁻⁶ cm/s

Molecule: Cc1cc(C)c(CNC(=O)c2cc(Cl)c3c(c2C)O[C@@](C)([C@H]2CC[C@H](N(C)C)CC2)O3)c(=O)[nH]1 [Compound 31, DS-3201]
AUC (a.u.) [1]: 173.5 a.u.
IC50 ([1]; MDA-MB-231, read-out: Mean IC50 (M), H3K27 methylation HCA, incubation time 0.5 h, washout time 71.5 h): 6.9e-07 M
IC50 ([1]; MDA-MB-231, read-out: Mean IC50 (M), H3K27 methylation HCA, incubation time 1 h, washout time 71 h): 2.3e-07 M
IC50 ([1]; MDA-MB-231, read-out: Mean IC50 (M), H3K27 methylation HCA, incubation time 24 h, washout time 48 h): 1.2e-07 M
IC50 ([1]; MDA-MB-231, read-out: Mean IC50 (M), H3K27 methylation HCA, incubation time 48 h, washout time 24 h): 3.9e-08 M
IC50 ([1]; MDA-MB-231, read-out: Mean IC50 (M), H3K27 methylation HCA, incubation time 72 h, washout time 0 h): 3.4e-09 M
Papp A→B at 2 h, 2 µM (in vitro): 0.599 ×10⁻⁶ cm/s
Papp B→A at 2 h, 2 µM (in vitro): 20.9 ×10⁻⁶ cm/s

Kd (PRC2/EZH2+/+ [2]; EZH2+/+, with H3K27me3 (AP), 25 °C, read-out: Equilibrium KD): 0.39 nM and 0.393 nM
Kd (PRC2/EZH2+/+ [2]; EZH2+/+, without H3K27me3 (AP), 25 °C, read-out: Equilibrium KD): 1.13 nM
Kd (PRC2/EZH2+/+ [2]; wild type EZH2, absence of H3K27me3 peptide, read-out: affinity in equilibrium conditions): 1.1 ± 0.2 nM
Kd (PRC2/EZH2+/+ [2]; wild type EZH2, saturating concentrations of H3K27me3 peptide, read-out: affinity in equilibrium conditions): 0.4 ± 0.01 nM
Kd (PRC2/EZH2Y641N [3]; with H3K27me3 (AP)): 2.7 nM and 2.72 nM
Kd (PRC2/EZH2Y641N [3]; without H3K27me3 (AP)): 9.56 nM
Kd (PRC2/EZH2+/+ [4]; with AP, 25 °C): 0.65 nM and 0.653 nM
koff (PRC2/EZH2+/+ [4]; with AP, 25 °C): 0.00073 s⁻¹
kon (PRC2/EZH2+/+ [4]; with AP, 25 °C): 1.2e+06 M⁻¹ s⁻¹
Kinetic koff (PRC2/EZH2+/+ [4]; with AP, 25 °C): 0.000728 s⁻¹
Kinetic kon (PRC2/EZH2+/+ [4]; with AP, 25 °C): 1.16e+06 M⁻¹ s⁻¹
Kd (PRC2/EZH2+/+ [4]; without AP, 5 °C): 1.16 nM
koff (PRC2/EZH2+/+ [4]; without AP, 5 °C): 0.000177 s⁻¹
kon (PRC2/EZH2+/+ [4]; without AP, 5 °C): 152000 M⁻¹ s⁻¹
Kd (PRC2/EZH2+/+ [4]; without AP, 15 °C): 0.53 nM
koff (PRC2/EZH2+/+ [4]; without AP, 15 °C): 0.000505 s⁻¹
kon (PRC2/EZH2+/+ [4]; without AP, 15 °C): 953000 M⁻¹ s⁻¹
Kd (PRC2/EZH2+/+ [4]; without AP, 25 °C): 1.4 nM and 1.43 nM
koff (PRC2/EZH2+/+ [4]; without AP, 25 °C): 0.0027 s⁻¹
kon (PRC2/EZH2+/+ [4]; without AP, 25 °C): 2e+06 M⁻¹ s⁻¹
Kinetic koff (PRC2/EZH2+/+ [4]; without AP, 25 °C): 0.00273 s⁻¹
Kinetic kon (PRC2/EZH2+/+ [4]; without AP, 25 °C): 1.96e+06 M⁻¹ s⁻¹
Kd (PRC2/EZH2+/+ [4]; without AP, 30 °C): 5.98 nM
koff (PRC2/EZH2+/+ [4]; without AP, 30 °C): 0.0051 s⁻¹
kon (PRC2/EZH2+/+ [4]; without AP, 30 °C): 853000 M⁻¹ s⁻¹
Kd (PRC2/EZH2+/+ [4]; without AP, 37 °C): 3.71 nM
koff (PRC2/EZH2+/+ [4]; without AP, 37 °C): 0.00823 s⁻¹
kon (PRC2/EZH2+/+ [4]; without AP, 37 °C): 2.22e+06 M⁻¹ s⁻¹
Kd (PRC2/EZH2Y641N [5]; with AP): 3.8 nM and 3.76 nM
koff (PRC2/EZH2Y641N [5]; with AP): 0.0035 s⁻¹
kon (PRC2/EZH2Y641N [5]; with AP): 1e+06 M⁻¹ s⁻¹
Kinetic koff (PRC2/EZH2Y641N [5]; with AP): 0.00345 s⁻¹
Kinetic kon (PRC2/EZH2Y641N [5]; with AP): 1.01e+06 M⁻¹ s⁻¹
Kd (PRC2/EZH2Y641N [5]; without AP): 27 nM
koff (PRC2/EZH2Y641N [5]; without AP): 0.018 s⁻¹
kon (PRC2/EZH2Y641N [5]; without AP): 680000 M⁻¹ s⁻¹
Kinetic koff (PRC2/EZH2Y641N [5]; without AP): 0.0177 s⁻¹
Kinetic kon (PRC2/EZH2Y641N [5]; without AP): 679000 M⁻¹ s⁻¹
Molecule: CCCc1cc(C)[nH]c(=O)c1CNC(=O)c1cc(-c2ccc(N3CCN(CCCCCCNC(=O)CCCCCN4\C(=C/C=C/C=C/C5=[N+](CCOC)c6ccc(S(=O)(=O)O)cc6C5(C)C)C(C)(C)c5cc(S(=O)(=O)O)ccc54)CC3)nc2)cc2c1cnn2C(C)C.O=C(O)C(F)(F)F.O=C([O-])C(F)(F)F [fluorescent probe, 2-[(1E,3E)-5-[(2Z)-3,3-dimethyl-1-{5-[(6-{4-[5-(4-{[(6-methyl-2-oxo-4-propyl-1,2-dihydropyridin-3-yl)methyl]carbamoyl}-1-(propan-2-yl)-1H-indazol-6-yl)pyridin-2-yl]piperazin-1-yl}hexyl)carbamoyl]pentyl}-5-sulfo-2,3-dihydro-1H-indol-2-ylidene]penta-1,3-dien-1-yl]-1-(2-methoxyethyl)-3,3-dimethyl-5-sulfo-3H-indol-1-ium trifluoroacetic acid trifluoroacetate]

Molecule: UNC2239
IC50 (EZH2): 20 nM
